Data published in patent publication US20030212123A1, “COX-2 selective carprofen for treating pain and inflammation in dogs” (Pfizer Inc., priority 1997, published 2003).
Read-outs that look alike come from different tables or passages of the source.

Tests used:
[1] = dog, in vivo, po
Protocol: Following oral dosing to dogs of an immediate release carprofen formulation at a dose of 2 mg/lb, plasma carprofen concentrations were above 10 μg/mL for approximately 10.5 hr. In accordance with the present invention, 2 mg/lb/day is within the range of preferred doses of carprofen.
Immediate release carprofen dosage forms containing doses of 1.8, 1.6, and 1.4 mg/lb maintain a plasma carprofen concentration above 10 μg/mL for 9.5 hrs, 8.5 hrs, and 7.5 hrs, respectively.

COX-2 [2] = target: T1, COX-2 (Canis lupus familiaris, UniProt Q8SPQ9); assay: in vivo; settings: for PGE2 Pg/mL/Well: group average; for inhibition at 2 mg/kg / inhibition at 10 mg/kg: dog, po
T1 sequence (Q8SPQ9 18-604): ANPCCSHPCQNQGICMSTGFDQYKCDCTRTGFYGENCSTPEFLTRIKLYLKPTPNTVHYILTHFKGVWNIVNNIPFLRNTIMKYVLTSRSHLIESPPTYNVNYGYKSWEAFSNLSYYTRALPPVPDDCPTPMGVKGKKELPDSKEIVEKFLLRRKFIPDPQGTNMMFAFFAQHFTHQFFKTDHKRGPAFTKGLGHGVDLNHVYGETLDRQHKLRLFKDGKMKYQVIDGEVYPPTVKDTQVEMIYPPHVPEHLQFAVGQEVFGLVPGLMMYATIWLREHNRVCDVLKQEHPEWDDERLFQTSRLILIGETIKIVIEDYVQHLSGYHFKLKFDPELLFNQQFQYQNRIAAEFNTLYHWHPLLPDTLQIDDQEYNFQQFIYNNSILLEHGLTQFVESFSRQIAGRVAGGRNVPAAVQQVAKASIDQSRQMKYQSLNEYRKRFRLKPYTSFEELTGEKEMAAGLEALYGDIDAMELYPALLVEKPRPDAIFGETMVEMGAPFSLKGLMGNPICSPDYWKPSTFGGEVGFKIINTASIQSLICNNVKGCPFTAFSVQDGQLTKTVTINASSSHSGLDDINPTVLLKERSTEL
Protocol: A zero-hour blood sample was collected from all dogs in the study prior to dosing, followed by 1-, 3-, and 6-hour post-dose blood sample collections. […] Test tubes used as controls contained vehicle and were unstimulated by the addition of any agent. A 500 μL sample of blood was added to each of the above-described test tubes, after which they were incubated at 37° C. for one hr in the case of the calcium ionophore-containing test tubes, and overnight in the case of the LPS-containing test tubes. After incubation, 10 μL of EDTA was added to give a final concentration of 0.3%, in order to prevent coagulation of the plasma which sometimes occurs after thawing frozen plasma samples. The incubated samples were centrifuged at 4° C. and the resulting plasma sample of ˜200 μL was collected and stored at −20° C. in polypropylene 96-well plates. In order to determine endpoints for this study, enzyme immunoassay (EIA) kits available from Cayman were used to measure production of TXB2 and PGE2, utilizing the principle of competitive binding of tracer to antibody and endpoint determination by colorimetry.
The data is expressed as treatment group averages in pg/mL of TXB2 and PGE2 produced per sample. Plasma dilution was not factored in said data values.

COX-2 [3] = target: T1, COX-2; assay: in vivo; settings: for PGE2 Pg/mL/Well: 2 mg/kg PO 30 min before carrageenan, exudate fluid, group average; for inhibition at 2 mg/kg: dog, po
Protocol: This objective of this study was to monitor in vivo COX-2 activity in a subcutaneously implanted chamber during an induced inflammation. The COX-2 enzyme can be detected by western analysis as early as 5 hours after carrageenan treatments (T. Kirchner et al., J. Pharmacol. Exp. Ther. (1997) 282, 1094-1101). […] Six beagle dogs had polyethylene “whiffle” golf balls approximately 4.2 cm in outer diameter surgically implanted under the skin just behind the shoulder blades.
The experiment was run in two replicates. […] The hair around the ball was shaved and the area was probed to locate a hole in the whiffle ball. This area was then marked and it was sterilized with 2% iodine tincture. […] EF samples were taken at 0, 5, and 24 hours after carrageenan injection.
The column was first washed with 10 mL of 0.1 M phosphate buffer then 10 mL water. The EF was then diluted 1:5 with 0.1 M phosphate buffer and added to the column. The column was washed with 10 mL of the phosphate buffer, then 10 mL of water. Finally, the PGE2 was removed from the column with 2.5 mL 95% ethanol.

COX-1 = target: T2, COX-1 (Rattus norvegicus, UniProt Q63921); assay: Rat in vivo COX-1: PGE2 production in mucosal lining of stomach (Griffiths et al.)
T2 construct: as measured in the mucosal lining of the rat stomach; from tissue; host or cells: mucosal lining of the rat stomach, in vivo
T2 sequence (Q63921 27-602): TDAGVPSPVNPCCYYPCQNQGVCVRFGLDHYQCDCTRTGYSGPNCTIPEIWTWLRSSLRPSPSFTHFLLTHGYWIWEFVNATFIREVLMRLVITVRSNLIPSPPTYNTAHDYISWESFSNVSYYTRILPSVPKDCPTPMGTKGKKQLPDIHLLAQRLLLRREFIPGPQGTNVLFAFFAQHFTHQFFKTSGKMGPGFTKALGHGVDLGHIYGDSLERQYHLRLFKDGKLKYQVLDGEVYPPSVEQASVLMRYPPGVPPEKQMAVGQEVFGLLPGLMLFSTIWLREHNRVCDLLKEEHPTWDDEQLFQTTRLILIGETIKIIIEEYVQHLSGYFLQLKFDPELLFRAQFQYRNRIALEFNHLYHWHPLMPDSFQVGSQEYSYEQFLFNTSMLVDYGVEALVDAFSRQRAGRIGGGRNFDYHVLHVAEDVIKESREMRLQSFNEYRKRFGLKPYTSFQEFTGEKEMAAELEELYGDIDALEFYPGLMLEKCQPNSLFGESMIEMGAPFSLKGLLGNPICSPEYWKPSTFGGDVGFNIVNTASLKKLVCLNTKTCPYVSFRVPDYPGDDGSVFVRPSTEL
Protocol: In vivo cyclo-oxygenase selectivity was evaluated in rats by the method of Griffiths et al., described in Agents & Actions, 32, (1991), 313-320. […] Synovial fluid is secreted by the synovial membrane and is contained in joint cavities. During joint inflammation, COX-2 is induced in joint tissues and prostaglandin products accumulate in the synovial fluid. […] Inhibition of this stomach isozyme results in adverse gastrointestinal side effects.

Which “time plasma carprofen concentrations were above 10 μg/mL” value [1] does the source give for CC(C(=O)O)c1ccc2c(c1)[nH]c1ccc(Cl)cc12 (racemic) [Carprofen (rac.), 6-chloro-α-methyl-9H-carbazole-2-acetic acid] here?
Its value is “approximately 10.5 hr”.

What about the “PGE2 Pg/mL/Well” value (COX-2 [2]; 2 mg/kg PO capsule, 0-hour (pre-dose)) of the same molecule?
The value was 511 Pg/mL/Well.

What about the “PGE2 Pg/mL/Well” value (COX-2 [2]; 2 mg/kg PO capsule, 1-hour post-dose) of the same molecule?
The value was 33 Pg/mL/Well.

What about the “PGE2 Pg/mL/Well” value (COX-2 [2]; 2 mg/kg PO capsule, 3-hour post-dose) of the same molecule?
The value was 98 Pg/mL/Well.

And the “PGE2 Pg/mL/Well” value (COX-2 [2]; 2 mg/kg PO capsule, 6-hour post-dose)?
The value was 190 Pg/mL/Well.

What about the “PGE2 Pg/mL/Well” value (COX-2 [2]; 10 mg/kg PO capsule, 0-hour (pre-dose)) of the same molecule?
The value was 336 Pg/mL/Well.

And the “PGE2 Pg/mL/Well” value (COX-2 [2]; 10 mg/kg PO capsule, 1-hour post-dose)?
The value was 19 Pg/mL/Well.

What about the “PGE2 Pg/mL/Well” value (COX-2 [2]; 10 mg/kg PO capsule, 3-hour post-dose) of the same molecule?
Its value is 12 Pg/mL/Well.

What about the “PGE2 Pg/mL/Well” value (COX-2 [2]; 10 mg/kg PO capsule, 6-hour post-dose) of the same molecule?
The value was 12 Pg/mL/Well.

What about the inhibition at 2 mg/kg (COX-2 [2]; read-out: COX-2 activity Percent Inhibition, 2 mg/kg PO capsule, 1-hour, based on zero hour value) of the same molecule?
The inhibition at 2 mg/kg was 94%.

What about the inhibition at 2 mg/kg (COX-2 [2]; read-out: COX-2 activity Percent Inhibition, 2 mg/kg PO capsule, 3-hour, based on zero hour value) of the same molecule?
The inhibition at 2 mg/kg was 81%.

And the inhibition at 2 mg/kg (COX-2 [2]; read-out: COX-2 activity Percent Inhibition, 2 mg/kg PO capsule, 6-hour, based on zero hour value)?
The inhibition at 2 mg/kg was 63%.

What about the inhibition at 10 mg/kg (COX-2 [2]; read-out: COX-2 activity Percent Inhibition, 10 mg/kg PO capsule, 1-hour, based on zero hour value) of the same molecule?
Its inhibition at 10 mg/kg is 94%.

And the inhibition at 10 mg/kg (COX-2 [2]; read-out: COX-2 activity Percent Inhibition, 10 mg/kg PO capsule, 3-hour, based on zero hour value)?
Its inhibition at 10 mg/kg is 96%.

What about the inhibition at 10 mg/kg (COX-2 [2]; read-out: COX-2 activity Percent Inhibition, 10 mg/kg PO capsule, 6-hour, based on zero hour value) of the same molecule?
Its inhibition at 10 mg/kg is 96%.

And the “PGE2 Pg/mL/Well” value (COX-2 [3]; 0-hour)?
Its value is 6.5 Pg/mL/Well.

And the “PGE2 Pg/mL/Well” value (COX-2 [3]; 5-hour)?
Its value is 1.9 Pg/mL/Well.

What about the “PGE2 Pg/mL/Well” value (COX-2 [3]; 24-hour) of the same molecule?
The value was 3.2 Pg/mL/Well.

What about the inhibition at 2 mg/kg (COX-2 [3]; read-out: In vivo COX-2 activity Percent Inhibition, 2 mg/kg PO, 5-hour after carrageenan, group average) of the same molecule?
Its inhibition at 2 mg/kg is 71%.

What about the inhibition at 2 mg/kg (COX-2 [3]; read-out: In vivo COX-2 activity Percent Inhibition, 2 mg/kg PO, 24-hour after carrageenan, group average) of the same molecule?
The inhibition at 2 mg/kg was 51%.

And the ED50 (COX-1)?
The ED50 was 6.4 mg/kg.
